Reference: US20250025451A1, “TREATMENT OF CANCER WITH KDM4 INHIBITORS” (Celgene Corporation, priority 2021, published 2025)
Like-named read-outs stand apart in the source and are kept apart here.

How the values were obtained:
[1] = system: GXA-3036 gastric adenocarcinoma patient-derived xenograft; assay: in vivo efficacy, GXA-3036 gastric adenocarcinoma patient-derived xenograft model; details: GXA-3036 PDX; for Median Tumor Volume Diff. (Day 35): Day 35 minus Day 0; for Median Tumor Volume Diff. (Day 38): Day 38 minus Day 0
Procedure: (§1) The therapeutic in vivo efficacy of Compound 1 was evaluated in SU60 colorectal cancer, KYSE-150 esophageal cancer, COH70 triple-negative breast cancer, GXA-3036 gastric adenocarcinoma and OCI-LY19 Diffuse Large B-Cell Non-Hodgkin's Lymphoma xenograft models. In all studies, efficacy was determined based on percent tumor growth inhibition (TGI), differences in mean tumor growth, and statistical assessment of differences in net tumor volume distributions on the day of TGI analysis between control and treated animals. Tolerability was assessed based on differences in mean body weights between control and treated animals over the course of the study.
The in vivo efficacy and tolerability of Compound 1, administered orally as the lysine salt form suspended in a vehicle comprised of 5% 2-hydroxypropyl-beta-cyclodextrin (HPBCD) in 50 mM phosphate buffer (pH 7.4), were evaluated in female immunodeficient NMRI-Foxn1nu mice using the subcutaneous gastric adenocarcinoma GXA-3036, a moderately differentiated intestinal type (based on Lauren's criteria) PDX model of Asian origin. Each mouse was inoculated subcutaneously in the right flank with a GXA-3036 tumor fragment (3 to 4 mm edge length). When the average tumor size reached ˜109 mm3, test animals were randomized into 5 groups consisting of 8 mice per group and treatments were initiated. Control mice received 5% HPBCD in 50 mM phosphate buffer (pH 7.4) vehicle PO 3 on/4 off. Treated mice received the Compound 1 lysine salt form in vehicle at 5, 15, or 50 mg/kg on the same schedule or at 22.5 mg/kg 2 on/5 off. One control animal, classified as moribund, was euthanized on Day 17 and was censored from analysis. Individual tumors were measured twice weekly in two dimensions using a caliper, and the tumor volumes (TV) in mm3 were calculated using the formula: TV=0.5 a×b2, where a and b are the long and short diameters in mm, respectively. Mean tumor volumes±SEM were calculated and plotted versus days of dosing (FIG. 14 left panel). Body weights were measured twice weekly. Body weights±SEM were calculated and plotted versus days of dosing (FIG. 14 right panel).
TGI was determined on Days 35 and 38 as (1−Difftreated/Diffcontrol)×100. The differences in median net tumor volumes on the days of TGI analysis for treated versus control animals were evaluated statistically using the non-parametric Kruskal-Wallis test followed by Dunn's multiple comparisons test. The reported adjusted p-values are for both days of TGI analysis where a calculated probability (p)≤0.05 was considered statistically significant.

[2] = system: OCI-LY19 human diffuse large B-cell non-Hodgkin's lymphoma xenograft; type: in vivo; details: for Median Tumor Volume Diff.: Day 21 minus Day 0
Procedure: as §1
The in vivo efficacy and tolerability of Compound 1, administered orally as the lysine salt form suspended in a 0.5% MC vehicle, were evaluated in female C.B-17 severe combined immunodeficient (scid) mice inoculated subcutaneously with OCI-LY19 tumor cells established from the bone marrow of a patient with diffuse large B-cell non-Hodgkin's lymphoma (DLBCL), stage 4B, at relapse. Each mouse was inoculated subcutaneously in the right flank with 5×10^6 OCI-LY19 tumor cells (0.1 ml) suspended in 50% Matrigel. When the average tumor size reached ˜165 mm3, test animals were randomized into 6 groups consisting of 8 mice per group and treatments were initiated. […] Compound 1-treated mice received the Compound 1 lysine salt form suspended in vehicle at 5, 15, or 50 mg/kg QD or at 25 mg/kg BID on the 3 on/4 off schedule. TGI was determined on Day 21 as (1−Difftreated/Diffcontrol)×100. Individual tumors were measured on the days shown in two dimensions using a caliper, and the tumor volumes (TV) in mm3 were calculated using the formula: TV=0.5 a×b2, where a and b are the long and short tumor diameters in mm, respectively. Mean tumor volumes±SEM were calculated and plotted versus days of dosing (FIG. 15 left panel). Body weights were measured twice weekly. Body weights±SEM were calculated and plotted versus days of dosing (FIG. 15 right panel). The difference in mean net tumor volumes on the day of TGI analysis for treated versus control animals was evaluated statistically using one-way ANOVA followed by Dunnett's multiple comparisons test; Adjusted p-values are shown where a calculated probability (p)≤0.05 was considered statistically significant.

[3] = system: tumor initiating cells of SU60 xenograft tumors; assay: functional in vivo tumorigenicity assay (limiting dilution assay); set-up: species or system mice
Procedure: The ability of Compound 1 to affect tumorigenic potential was analyzed by flow cytometry analysis of the tumorigenic cell population and functional in vivo tumorigenicity assay (limiting dilution assay).
To assess the effect of Compound 1 on tumorigenic cell population, Compound 1 was used to treat SU60 xenograft tumors. NSG female mice engrafted with SU60 cells (7 mice each group) were administered Compound 1 at 40 mg/kg PO QD×21. The day after the last dose, three tumors nearest to the mean size from each group were dissociated and the single cells were used to perform: 1) flow cytometry analysis of the tumorigenic cell population and 2) functional in vivo tumorigenicity assay (limiting dilution assay). Flow Cytometry Analysis of Tumorigenic Cell Population after Compound 1 Treatment
To study the effect of Compound 1 on tumor initiating cell (TIC) frequency in CRC tumors, we evaluated the tumorigenic potential of SU60 xenograft cells posttreatment with Compound 1 or vehicle. At the end of dosing, SU60 dissociated cells from three animals per group nearest to the mean size were injected in a limiting dilution manner into recipient NSG mice and tumor volumes were measured. The number of cells required for tumor formation was reduced in the Compound 1-treated group. The reduction in TIC frequency was 4.4-fold (FIG. 17 and Table 10). Differentiation of progenitor cells is a potential explanation for this reduction.

[4] = 15 mg/kg PO 3 on/4 off, 15 mg/kg
[5] = 22.5 mg/kg PO 2 on/5 off, 22.5 mg/kg
[6] = 50 mg/kg PO 3 on/4 off, 50 mg/kg
[7] = SU60 cells from tumors treated 40 mg/kg QD, injected into recipient NSG mice, 50 cells
[8] = SU60 cells from tumors treated 40 mg/kg QD, injected into recipient NSG mice, 500 cells
[9] = SU60 cells from tumors treated 40 mg/kg QD, injected into recipient NSG mice, 1000 cells

CC(C)c1ccc(N(C)c2ccc3c(c2)OCC[C@H]3CNc2cnccc2C(=O)O)cc1 [Compound 1, 3-({[(4R)-7-{methyl[4-(propan-2-yl)phenyl]amino}-3,4-dihydro-2H-1-benzopyran-4-yl]methyl}amino)pyridine-4-carboxylic acid]
tolerability (mean body weights) ([1]; female NMRI-Foxn1nu mice, all regimens): well-tolerated
Median Tumor Volume Day 35 ([1]; female NMRI-Foxn1nu mice, lysine salt 5 mg/kg (free acid equivalents) PO 3 on/4 off): 391 mm^3
Median Tumor Volume Day 35 ([1]; female NMRI-Foxn1nu mice, lysine salt 15 mg/kg (free acid equivalents) PO 3 on/4 off): 278 mm^3
Median Tumor Volume Day 35 ([1]; female NMRI-Foxn1nu mice, lysine salt 22.5 mg/kg (free acid equivalents) PO 2 on/5 off): 447 mm^3
Median Tumor Volume Day 35 ([1]; female NMRI-Foxn1nu mice, lysine salt 50 mg/kg (free acid equivalents) PO 3 on/4 off): 371 mm^3
Median Tumor Volume Day 38 ([1]; 5 mg/kg PO 3 on/4 off): 460 mm^3
% TGI (Day 35) ([1]; 5 mg/kg PO 3 on/4 off, 5 mg/kg): 52%
Median Tumor Volume Diff. (Day 35) ([1]; 5 mg/kg PO 3 on/4 off): 282 mm^3
% TGI (Day 38) ([1]; 5 mg/kg PO 3 on/4 off, 5 mg/kg): 43%
Median Tumor Volume Diff. (Day 38) ([1]; 5 mg/kg PO 3 on/4 off): 351 mm^3
Median Tumor Volume Day 38 ([1]; 15 mg/kg PO 3 on/4 off): 298 mm^3
% TGI (Day 35) [1, 4]: 71%
Median Tumor Volume Diff. (Day 35) ([1]; 15 mg/kg PO 3 on/4 off): 169 mm^3
% TGI (Day 38) [1, 4]: 69%
Median Tumor Volume Diff. (Day 38) ([1]; 15 mg/kg PO 3 on/4 off): 189 mm^3
Median Tumor Volume Day 38 ([1]; 22.5 mg/kg PO 2 on/5 off): 470 mm^3
% TGI (Day 35) [1, 5]: 42%
Median Tumor Volume Diff. (Day 35) ([1]; 22.5 mg/kg PO 2 on/5 off): 338 mm^3
% TGI (Day 38) [1, 5]: 41%
Median Tumor Volume Diff. (Day 38) ([1]; 22.5 mg/kg PO 2 on/5 off): 361 mm^3
Median Tumor Volume Day 38 ([1]; 50 mg/kg PO 3 on/4 off): 403 mm^3
% TGI (Day 35) [1, 6]: 55%
Median Tumor Volume Diff. (Day 35) ([1]; 50 mg/kg PO 3 on/4 off): 262 mm^3
% TGI (Day 38) [1, 6]: 52%
Median Tumor Volume Diff. (Day 38) ([1]; 50 mg/kg PO 3 on/4 off): 294 mm^3
% TGI ([2]; 5 mg/kg PO QD 3 on/4 off, Day 21, 5 mg/kg): 55%
Median Tumor Volume Diff. ([2]; 5 mg/kg PO QD 3 on/4 off): 920 mm^3
% TGI ([2]; 15 mg/kg PO QD 3 on/4 off, Day 21, 15 mg/kg): 83%
Median Tumor Volume Diff. ([2]; 15 mg/kg PO QD 3 on/4 off): 345 mm^3
% TGI ([2]; 25 mg/kg PO BID 3 on/4 off, Day 21, 25 mg/kg): 102%
Median Tumor Volume Diff. ([2]; 25 mg/kg PO BID 3 on/4 off): −32 mm^3
% TGI ([2]; 50 mg/kg PO QD 3 on/4 off, Day 21, 50 mg/kg): 90%
Median Tumor Volume Diff. ([2]; 50 mg/kg PO QD 3 on/4 off): 196 mm^3
tolerability (mean body weights) ([2]; female C.B-17 scid mice, all Compound 1 regimens): well-tolerated
Median Tumor Volume Day 21 ([2]; female C.B-17 scid mice, lysine salt 5 mg/kg PO QD 3 on/4 off): 1088 mm^3
Median Tumor Volume Day 21 ([2]; female C.B-17 scid mice, lysine salt 15 mg/kg PO QD 3 on/4 off): 512 mm^3
Median Tumor Volume Day 21 ([2]; female C.B-17 scid mice, lysine salt 25 mg/kg (free acid equivalents) PO BID 3 on/4 off): 135 mm^3
Median Tumor Volume Day 21 ([2]; female C.B-17 scid mice, lysine salt 50 mg/kg PO QD 3 on/4 off): 361 mm^3
Mean Tumor Volume (50 cells) [3, 7]: 209 mm^3
Tumor Take Rate (50 cells) [3, 7]: 3/10
Mean Tumor volume (500 cells) [3, 8]: 589 mm^3
Tumor Take Rate (500 cells) [3, 8]: 5/10
Mean Tumor Volume (1000 cells) [3, 9]: 830 mm^3
Tumor Take Rate (1000 cells) [3, 9]: 7/10
reduction in TIC frequency ([3]; SU60 xenograft, 40 mg/kg PO QD x21, vs vehicle): 4.4 fold
